In patent US20170022159A1, “HETEROCYCLIC AMPHOTERIC COMPOUNDS” (Eastman Chemical Company, priority 2014, published 2017):
Read-outs that look alike come from different tables or passages of the source.

Assays:
[1] = Fluorimetric determination of critical micelle concentration (DPH dye); assay type: physicochemical
Procedure: The critical micelle concentration (CMC) was also determined for each compound. The CMC is the concentration of surfactant above which micelles spontaneously form. CMC is an important characteristic of a surfactant. At surfactant concentrations below the CMC, surface tension varies widely with surfactant concentration. At concentrations above the CMC, surface tension remains fairly constant. A lower CMC indicates less surfactant is needed to saturate interfaces and form micelles. Typical CMC values are less than 1 weight percent (10,000 ppm).
The fluorimetric determination of CMC described by Chattopadhyay and London (Analytical Biochemistry, Vol. 139, pp. 408-412 (1984)) was used to obtain the critical micelle concentrations found in Table 3 below. This method employs the fluorescent dye 1,6-diphenyl-1,3,5-hexatriene (DPH) in a solution of the surface-active agent. The analysis is based on differences in fluorescence upon incorporation of the dye into the interior of the micelles. As the solution exceeds CMC, a large increase in fluorescence intensity is observed.

[2] = Foaming Properties of Surface-Active Agents (ASTM 1173-07), foam height; assay type: physicochemical
Text: The Standard Test Method for Foaming Properties of Surface-Active Agents (ASTM 1173-07) was used to determine the foaming properties of the heterocyclic amphoteric compounds of the formula 1 described herein. This method generates foam under low-agitation conditions and is generally used for moderate- and high-foam surfactants. This test gathers data on initial foam height and foam decay. Foam decay provides information on foam stability.
The apparatus for carrying out this test includes a jacketed column and a pipet. The jacketed column serves as a receiver, while the pipet delivers the surface-active solution. Solutions of each surface-active agent were prepared. The solution of the heterocyclic amphoteric compound to be tested was added to the receiver (50 mL) and to the pipet (200 mL). The pipet was positioned above the receiver and opened. As the solution fell and made contact with the solution in the receiver, foam was generated. When the pipet was empty, the time was noted and an initial foam height was recorded. The foam height was recorded each minute for five minutes. Exact size specifications for the glassware can be found in ASTM 1173-07. The foam height results for each heterocyclic amphoteric compound 1 and representative standards are listed below in Tables 1 (0.1% concentration) and 2 (1% concentration).

[3] = for Percent amphoteric remaining: buffer
Procedure: The resulting mixture was placed in a 50° C. oven. Samples were taken periodically and analyzed for the amount of (4-lauroyloxy-1-methylpiperidinium-1-yl)acetate remaining by quantitative HPLC.

[4] = 1 g/L (0.1 weight %), t = 0 min
[5] = 1 g/L (0.1 weight %), t = 1 min
[6] = 1 g/L (0.1 weight %), t = 2 min
[7] = 1 g/L (0.1 weight %), t = 3 min
[8] = 1 g/L (0.1 weight %), t = 5 min
[9] = 10 g/L (1.0 weight %), t = 0 min
[10] = 10 g/L (1.0 weight %), t = 1 min
[11] = 10 g/L (1.0 weight %), t = 3 min
[12] = 10 g/L (1.0 weight %), t = 4 min
[13] = 10 g/L (1.0 weight %), t = 5 min
[14] = 1 g/L (0.1 weight %), t = 4 min
[15] = 10 g/L (1.0 weight %), t = 2 min

Compound	CMC [1] [mM]	CMC (ppm) [1] [ppm]	Foam height (cm) at time t (min) [2, 4] [cm]	Foam height (cm) at time t (min) [2, 5] [cm]	Foam height (cm) at time t (min) [2, 6] [cm]	Foam height (cm) at time t (min) [2, 7] [cm]	Foam height (cm) at time t (min) [2, 8] [cm]	Foam height (cm) at time t (min) [2, 9] [cm]	Foam height (cm) at time t (min) [2, 10] [cm]	Foam height (cm) at time t (min) [2, 11] [cm]	Foam height (cm) at time t (min) [2, 12] [cm]	Foam height (cm) at time t (min) [2, 13] [cm]	Foam height (cm) at time t (min) [2, 14] [cm]	Foam height (cm) at time t (min) [2, 15] [cm]	other results
cocamidopropyl betaine [reference compound]	0.069	24.5	17.0	16.0	16.0	16.0	15.5	17.5	16.5	16.0	16.0	16.0			
CCCCCCCCCCCCOS(=O)(=O)[O-].[Na+] [sodium lauryl sulfate, reference compound]	8.27	2386													
CCCCCCCCCCCC(=O)OCC1CCC[N+](C)(CC(=O)[O-])C1 (centres unmarked) [Example 11, (3-lauroyloxymethyl-1-methylpiperidinium-1-yl)acetate]	0.248	95.0	18.5	17.5	17.5	17.0	16.0	19.0	18.0	17.5	17.5	17.5	16.5	18.0	
CCCCCCCCCCCCOS(=O)(=O)O.N [ammonium lauryl sulfate, reference compound]	1.38	392													
3-(cocoyloxypropyldimethylammonio)acetate [Comparative Example 2, reference compound]															Percent amphoteric remaining ([3]; 0 h, pH 5): 100%; Percent amphoteric remaining ([3]; 336 h, pH 5): 74%; Percent amphoteric remaining ([3]; 1344 h, pH 5): 73%; Loss of compound (in words) ([3]; milder conditions (pH 5, 45° C.)): significant loss
CCCCCCCCCCCC(=O)OC1CC[N+](C)(CC(=O)[O-])CC1 (centres unmarked) [Example 9, (4-lauroyloxy-1-methylpiperidinium-1-yl)acetate]			17.0	17.0	16.5	16.5	16.0	16.5	16.0	15.5	15.5	15.5	16.0	16.0	Percent amphoteric remaining ([3]; 0 h, pH 4.5): 100%; Percent amphoteric remaining ([3]; 336 h, pH 4.5): 98%; Percent amphoteric remaining ([3]; 1008 h, pH 4.5): 96%; Percent amphoteric remaining ([3]; 1344 h, pH 4.5): 85%; Loss of compound (in words) ([3]; extended incubation in pH 4.5 water at 50° C.): limited loss

Continued, in another order:

CMC [1] [mM]	CMC (ppm) [1] [ppm]	Foam height (cm) at time t (min) [2, 4] [cm]	Foam height (cm) at time t (min) [2, 5] [cm]	Foam height (cm) at time t (min) [2, 6] [cm]	Foam height (cm) at time t (min) [2, 7] [cm]	Foam height (cm) at time t (min) [2, 8] [cm]	Foam height (cm) at time t (min) [2, 9] [cm]	Foam height (cm) at time t (min) [2, 10] [cm]	Foam height (cm) at time t (min) [2, 11] [cm]	Foam height (cm) at time t (min) [2, 12] [cm]	Foam height (cm) at time t (min) [2, 13] [cm]	Foam height (cm) at time t (min) [2, 14] [cm]	Foam height (cm) at time t (min) [2, 15] [cm]	Compound	other results
1.54	566.5													(4-lauramido-1-methylpiperidinium-1-yl)acetate [Example 17]	
0.050	19.2	16.0	14.5	12.5	9.0	4.0	18.0	17.0	17.0	16.5	16.5	6.0	17.0	(4-cocoyloxymethyl-1-methylpiperidinium-1yl)acetate [Example 7]	
0.062	22.9	16.5	16.0	15.5	15.5	15.5	18.5	18.0	17.0	17.0	17.0	15.5	17.5	(4-cocoyloxy-1-methylpiperidinium-1-yl)acetate [Example 3]	
0.062	23.7	16.5	16.0	15.5	15.5	15.0	18.0	17.5	17.0	17.0	16.5	15.0	17.0	(3-cocoyloxymethyl-1-methylpiperidinium-1-yl)acetate [Example 5]	
